From patent US20220347188A1, “PROMOTING TISSUE REGENERATION” (FRIEDRICH MIESCHER INSITUTE FOR BIOMEDICAL RESEARCH, priority 2019, published 2022)

Tested on: intestinal organoids
Experiment: intestinal organoids cultured from single cells, image-based phenotypic assay
Type: cell-based
Text: The present inventors developed a novel image-based phenotypic screening platform in intestinal organoids cultured from single cells to generate a toolbox of compounds shaping the intestinal organoid phenotypic landscape. The compounds were used to infer functional genetic interactions and identify pathways impacting different steps of organoid development. The inventors focused on compounds that improve the regeneration potential of the intestinal epithelium and discovered a novel role for nuclear retinoic acid receptors during organoid damage response and homeostasis both in vitro and in vivo.
FIG. 1 RXR activity is indispensable for symmetry breaking and cell type balance maintenance Representative images of organoids cultured from single cells in indicated treatment conditions (left), composite maximum intensity projections of confocal z-stacks, nuclei, DAPI, antibody staining for Lysozyme and Aldolase B, scale bar, 50 μm. Violin plots showing distribution of mean Aldolase B staining intensity in control and treated organoids (top right). Box plots inside violin plots show quartile range, whiskers show value interval with excluded outliers, white dots indicate median values, n, number of individual organoids in respective conditions. DMSO, DMSO control, RXRi, 5 μM RXR antagonist. […]

CC1=C(/C=C/C(C)=C/C=C/C(C)=C/C(=O)O)C(C)(C)CCC1 [atRA, all-trans retinoic acid]
ALDH1A1-positive as well as RARE-positive region (ALDH1A1 antibody staining and RARE reporter gene): expansion
absorptive enterocytes in organoids (organoids cultured in presence of an RXR agonist and atRA): increase in absorptive enterocytes
